Several values for one entry are separate records, joined by “and”; a condition that tells them apart may be missing. Equal entries are not always repeated.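 Tested at 5 concentrations; 48 h exposure; 96-well plates; endpoints linearly interpolated, else capped at highest concentration. GI50 = concentration required for 50% inhibition of growth. TGI is the concentration that stops growth completely.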
Tested on: MDA-MB-468 breast
Test: growth of human tumour cells (NCI), 48 h

| SMILES | GI50 | TGI |
| --- | --- | --- |
| Cc1nc(-c2cc3ccccc3oc2=O)ccc1C(=O)/C=C/c1ccccn1 | > 100 µM | > 100 µM |
| O=C(NCCc1ccccc1)Nc1ccc2cc3ccc(NC(=O)NCCc4ccccc4)cc3nc2c1 | 0.81 µM | 2.27 µM |
| O=C(O)c1cc2ccccc2c2c3c(ccc12)OCO3 | 153 µM | 460 µM |
| Cc1ccc(C(=O)c2sc3nc4c(cc3c2N)CCCC4)c(C)c1 | 0.21 µM | 8.42 µM |
| CS(=O)(=O)Nc1cc(-c2ccc3ncnc(Nc4ccc(F)c(Cl)c4)c3c2)cnc1Cl | 0.236 µM and 0.21 µM | 1.29 µM and 1.02 µM |
| O=C(CSCC(=O)N/N=C/c1ccccc1O)N/N=C\c1ccccc1O | 1.26 µM | 5.85 µM |
| O=C(NCCN1CCCC1)c1ccc(-c2nc3ccc4[nH]ncc4c3c3c2CCCC3)cc1 | 0.356 µM | 1.38 µM |
| N#Cc1cnc2cc(OC[C@@H](O)CO)c(NC(=O)C3CCCC3)cc2c1Nc1ccc(OCc2cccc(F)c2)c(Cl)c1 | 0.611 µM | 2.5 µM |
| NCCCCCNc1noc(Cc2c[nH]c3cc(Br)ccc23)n1 | 2.13 µM | 5.15 µM |
| Nc1ncnc2c1ncn2C1OC(COS(N)(=O)=O)C(O)C1O (stereo not drawn) | 0.0021 µM and 0.0201 µM | 0.00465 µM and 0.0422 µM |
| COc1cccc(-c2nn(-c3ccccc3)cc2-c2ccnc(NCCCNC(=O)c3cccc(C(F)(F)F)c3)c2)c1 | 1.95 µM | 7.37 µM |
| CC[C@@]1(OC(=O)CN(C)C)C(=O)OCc2c1cc1n(c2=O)Cc2cc3c(N)cccc3nc2-1 | 0.0128 µM | 0.035 µM |
| COc1ccc(C(C)c2cc(OC)c(OC)c(OC)c2)cc1 (stereo not drawn) | 0.0945 µM | > 50 µM |
| Cc1ccc(C(=O)NCCCOc2ccc(N3C(N)=NC(N)=NC3(C)C)cc2Cl)cc1S(=O)(=O)F | > 100 µM | > 100 µM |
| COc1cc(Cl)cc(-c2nn(-c3cccc(NC(=O)Nc4cccc(C(F)(F)F)c4)c3)cc2-c2ccncc2)c1 | 1.05 µM | 4.99 µM |
| NCCCOc1cc2ccccc2cc1C(=O)Nc1ccc(Cl)cc1OC(=O)c1cc2ccccc2cc1OCCCN | 0.221 µM | 0.573 µM |
| CCOC(=O)C(Cc1c[nH]c2cc(N(CCO)CCO)ccc12)(NC(C)=O)C(=O)OCC | 793 µM | > 1000 µM |
| CNC(=O)c1cc(Oc2cccc3nc(NC(=O)Nc4cc(C(F)(F)F)cc(C(F)(F)F)c4)ccc23)ccn1 | 3.4 µM | 26.6 µM |
| COc1ccc(/C(C)=N/NC(=O)CSc2nc3ccccc3c(=O)n2CCc2ccc(S(N)(=O)=O)cc2)cc1 | 2.3 µM | 4.85 µM |
| CCCOc1cc2ccccc2cc1C(=O)Nc1nc(NC)c2c(ccc3nccc32)[nH]1 | 0.275 µM | 1.01 µM |
| O=[N+]([O-])c1cccc(-c2nc(-c3ccc(Cl)cc3Cl)cn2-c2ccccc2)c1 | 1.57 µM | 6.75 µM |
| CN(C)C(=O)OCc1nc2c(N3CCOCC3)nc(-c3ccccc3)nc2n1C | 0.573 µM | 1.82 µM |

| SMILES | GI50 | TGI |
| --- | --- | --- |
| C/C=C/C/C=C/[C@H](C)C[C@H](O)[C@@H]1C[C@@H]2O[C@H]2/C=C/[C@@H]2OC(C)(C)O[C@H]2/C=C/C[C@H](C)CC(=O)O1 | 17.3 µM | > 100 µM |
| O=C(Nc1cccc(-n2cc(-c3ccncc3)c(-c3ccc(O)c(Cl)c3)n2)c1)c1ccc2c(c1)OCCO2 | 6.88 µM | > 100 µM |
| Cc1cc(C(=O)/C=C/c2ccc[nH]2)ccc1-n1ccc(C(F)(F)F)n1 | 3.76 µM | 34.9 µM |
| CCOC(=O)Nc1nc2ccccc2[nH]1 | 2.75 µM and 2.07 µM | > 89.9 µM and 9.09 µM |
| N#Cc1ccc(-c2c(-c3ncn[nH]3)sc(N3CCOCC3)c2C#N)c(F)c1 | 0.242 µM | 1.55 µM |
| O=C1CC[C@H](N2Cc3c(OCc4ccc(CN5CCOCC5)cc4)cccc3C2=O)C(=O)N1 | > 100 µM | > 100 µM |
| Nc1c(C(=O)Nc2ccccn2)sc2nc3c(cc12)C(O)CCC3 (stereo not drawn) | 1.08 µM | > 50 µM |
| Clc1ccc(C2CC(c3cccc(Nc4ccncc4)c3)=NN2c2ccc(Cl)cc2)cc1 (stereo not drawn) | 1.4 µM | 2.92 µM |
| CO[C@@H]1CCN(c2nccc(Nc3cc4c(C(C)C)ccc(N5CC(CS(C)(=O)=O)[C@H]5C)c4cn3)n2)C[C@@H]1F (stereo partly drawn) | 0.544 µM | 4.11 µM |
| O=S(=O)(NCCNc1nccc(-c2c(-c3ccc(F)c(O)c3)nc3sccn23)n1)c1ccc(Cl)cc1 | 2.17 µM | > 50 µM |
| CC(C)(C)c1cc(C(=O)Nc2ccc(C(=O)NCCN)cc2)cc(C(C)(C)C)c1 | 1.82 µM | 3.6 µM |
| O=C1Nc2cc(-c3cccc(O)c3)ccc2/C1=C/c1ccc[nH]1 | 0.245 µM | 0.805 µM |
| COc1cccc(/C=C/c2nc3c(cnn3-c3ccccc3)c(=O)[nH]2)c1 | 0.67 µM | > 100 µM |
| Cc1ccc(S(=O)(=O)OCC#CCOS(=O)(=O)c2ccc(C)cc2)cc1 | 1.85 µM | 3.88 µM |
| Cc1ccc(Nc2cc(Cl)c([N+](=O)[O-])cc2[N+](=O)[O-])cc1 | 1.8 µM | 3.58 µM |
| O=C1/C=C/[C@@H](O)[C@@H]2C[C@@H](O)C[C@H]2/C=C/CCC[C@H](CCc2ccc3ncccc3c2)O1 | 0.0656 µM | 0.495 µM |
| COCCOCCOCc1n(Cc2ccc3ccccc3c2)c2ccccc2[n+]1Cc1ccc2ccccc2c1 | 0.11 µM | 0.659 µM |
| C[C@]12CC[C@@H]3c4ccc(O)cc4CC[C@H]3[C@@H]1CC[C@@H]2NS(=O)(=O)c1ccc(Br)cc1 | 3.57 µM | 11.2 µM |
| Cc1cc(-c2nnc(/C=C/c3ccc4c(c3)OCO4)o2)n[nH]1 | 10.9 µM | 32.7 µM |
| CN1CCN(c2ccc(OC(F)(F)F)c(Nc3ncc4c(n3)-c3c(c(C(N)=O)nn3CCO)CC4)c2)CC1 | < 0.01 µM and 0.032 µM | 11.5 µM |
| CCCCCCCCCCCCCCCCCCNCc1ccc(Cl)cc1 | 7.87 µM | 24.8 µM |
| O=c1c2cc(-c3ccc(F)cc3F)ccc2n(Nc2ccccc2)c(=O)n1-c1cccc(C(F)(F)F)c1 | 1.99 µM | 5.57 µM |

Reference: PubChem BioAssay (NCI)
